{
  "source": "patent US7923465B2",
  "about": "“Cannabinoid receptor ligands, pharmaceutical compositions containing them, and process for their preparation” (priority 2005, dated 2011)",
  "target": "hCB1 (Homo sapiens, UniProt P21554)",
  "sequence (P21554 whole entry)": "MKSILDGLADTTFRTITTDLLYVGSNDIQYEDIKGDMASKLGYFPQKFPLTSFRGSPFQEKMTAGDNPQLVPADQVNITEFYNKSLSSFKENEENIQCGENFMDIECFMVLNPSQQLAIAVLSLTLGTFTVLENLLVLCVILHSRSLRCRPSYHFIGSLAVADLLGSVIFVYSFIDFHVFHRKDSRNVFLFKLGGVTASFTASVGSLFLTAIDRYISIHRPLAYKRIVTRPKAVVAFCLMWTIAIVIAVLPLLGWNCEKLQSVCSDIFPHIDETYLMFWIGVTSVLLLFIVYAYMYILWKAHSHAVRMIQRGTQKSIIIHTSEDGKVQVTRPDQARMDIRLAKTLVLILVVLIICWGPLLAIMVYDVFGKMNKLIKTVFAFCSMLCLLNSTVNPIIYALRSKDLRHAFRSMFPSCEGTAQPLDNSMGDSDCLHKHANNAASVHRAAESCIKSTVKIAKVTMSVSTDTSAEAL",
  "experiment": "In vitro binding assay using hCB1-CHO membranes, [3H]-CP-55,940 displacement (Protocol II)",
  "set-up": "expressed in transfected cells; host or cells: CHO (hCB1-CHO, generated in-house)",
  "procedure,_shortened": "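Incubated 1 h at 37° C, stopped by rapid vacuum filtration on PEI-precoated GF/B filters, bound radioactivity counted by liquid scintillation.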",
  "data": [
    {"smiles": "O=C(NN1CCCCC1)c1nn(-c2ccc(Cl)cc2)c2c1C1CC3CC(C1)CC2C3", "note": "[Example 140, N(7)-Piperidino-5-(4′-chlorophenyl)-5,6-diazatetracyclo[7.3.1.1^3,11.0^4,8]tetradeca-4(8)-6-diene-7-carboxamide]", "values": [
      {"measurement": "% Displacement Protocol II", "result": 57.85, "unit": "%"}
    ]}
  ]
}
